Earlier results on three molecules are cited in US20090285811A1, “ANTI-INFLAMMATORY AND IMMUNOSUPPRESSIVE GLUCOCORTICOID STEROIDS” (Auspex Pharmaceuticals, Inc., priority 2008, published 2009).

SMILES strings stand for the structures. Read-outs that look alike come from different tables or passages of the source.

In one data set the target is T1, glucocorticoid receptor (Homo sapiens, UniProt P04150).
T1 sequence (P04150 1-777): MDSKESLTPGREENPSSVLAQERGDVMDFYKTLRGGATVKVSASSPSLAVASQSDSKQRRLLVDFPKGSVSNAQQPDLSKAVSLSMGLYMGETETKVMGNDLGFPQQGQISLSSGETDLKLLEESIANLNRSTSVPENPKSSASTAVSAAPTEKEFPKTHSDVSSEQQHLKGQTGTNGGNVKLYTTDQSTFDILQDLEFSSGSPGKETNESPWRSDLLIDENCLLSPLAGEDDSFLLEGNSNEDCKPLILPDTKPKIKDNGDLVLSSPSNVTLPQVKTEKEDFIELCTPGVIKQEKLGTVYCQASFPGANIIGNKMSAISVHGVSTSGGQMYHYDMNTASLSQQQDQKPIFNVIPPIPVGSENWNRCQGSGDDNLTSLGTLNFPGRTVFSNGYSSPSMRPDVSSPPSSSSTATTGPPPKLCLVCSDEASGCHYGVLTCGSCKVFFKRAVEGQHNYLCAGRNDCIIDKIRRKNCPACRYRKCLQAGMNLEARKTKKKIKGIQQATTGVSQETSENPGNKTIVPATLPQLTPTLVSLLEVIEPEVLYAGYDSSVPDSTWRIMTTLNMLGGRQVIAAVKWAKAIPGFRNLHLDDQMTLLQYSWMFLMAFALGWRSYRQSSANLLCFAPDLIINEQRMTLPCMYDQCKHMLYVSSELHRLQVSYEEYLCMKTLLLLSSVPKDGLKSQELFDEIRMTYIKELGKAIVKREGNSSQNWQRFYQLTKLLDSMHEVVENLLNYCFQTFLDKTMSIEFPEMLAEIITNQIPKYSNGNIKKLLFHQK
To be noted: primary human CYP3A metabolites of budesonide.

On to `CCCC1O[C@@H]2C[C@H]3[C@@H]4CCC5=CC(=O)C=C[C@]5(C)[C@H]4[C@@H](O)C[C@]3(C)[C@]2(C(=O)CO)O1` (stereo partly drawn) [Budesonide, 16,17-(butylidenebis(oxy))-11,21-dihydroxy-, (11-β,16-α)-pregna-1,4-diene-3,20-dione], for which the systemic availability entry is recorded as “approximately 12%” (after oral administration) and “about 20%” (intranasal administration). Also, the elimination half-life result (in vivo) is “approximately 2 hours”. Besides, the clearance entry is “about 20 mL/min/Kg” (non-oral routes of administration) and approximately 40 mL/min/kg (oral administration).

Turning to `CCCC1O[C@@H]2C[C@H]3[C@@H]4C[C@@H](O)C5=CC(=O)C=C[C@]5(C)[C@H]4[C@@H](O)C[C@]3(C)[C@]2(C(=O)CO)O1` (stereo partly drawn) [6β-hydroxybudesonide], the “potency compared with budesonide” value on glucocorticoid receptor is on record as “significantly less potent”.

Take `C[C@]12C=CC(=O)C=C1CC[C@@H]1[C@@H]2[C@@H](O)C[C@@]2(C)[C@H]1C[C@@H](O)[C@]2(O)C(=O)CO` [16α-hydroxyprednisolone]: the “potency compared with budesonide” value on glucocorticoid receptor is “significantly less potent”.
